Results published in US8952024B2, “Herbicidal pyrimidone derivatives” (E I du Pont de Nemours and Company, priority 2009, dated 2015).

Experiments:
Assay type in all cases: in vivo
[1] = tested on: velvetleaf (Abutilon theophrasti); test: Test A pre-/postemergence plant response
Procedure, shortened: (§1)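 Visual injury rating on a 0–100 scale (0 = no effect, 100 = complete control) was made versus untreated controls after about ten days in the greenhouse. Compounds, formulated in a non-phytotoxic solvent mix containing surfactant, were sprayed preemergence onto loam/sand soil and postemergence onto one- to two-leaf plants.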

[2] = tested on: large crabgrass (Digitaria sanguinalis); test: Test A pre-/postemergence plant response
Procedure, shortened: as §1

[3] = tested on: wheat (Triticum aestivum); test: Test A pre-/postemergence plant response
Procedure, shortened: as §1

[4] = tested on: morningglory (Ipomoea spp.); test: Test A pre-/postemergence plant response
Procedure, shortened: as §1

[5] = tested on: pigweed (Amaranthus retroflexus); test: Test A pre-/postemergence plant response
Procedure, shortened: as §1

[6] = tested on: barnyardgrass (Echinochloa crus-galli); test: Test A pre-/postemergence plant response
Procedure, shortened: as §1

[7] = tested on: giant foxtail (Setaria faberii); test: Test A pre-/postemergence plant response
Procedure, shortened: as §1

[8] = tested on: corn (Zea mays); test: Test A pre-/postemergence plant response
Procedure, shortened: as §1

[9] = tested on: windgrass (Apera spica-venti); test: Test B postemergence plant response; conditions: for Windgrass plant response rating (0 to 100 scale): 62 g ai/ha, 0 is no effect, 13 to 15 days
Procedure, shortened: (§2)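 Visual ratings from 0 (no effect) to 100 (complete control), made against controls 13–15 days after treatment, kept in a greenhouse. Compounds were applied postemergence to potted plants at the 1- to 4-leaf stage (2–18 cm).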

[10] = tested on: winter barley (Hordeum vulgare); test: Test B postemergence plant response; conditions: for Barley plant response rating (0 to 100 scale): 62 g ai/ha, 0 is no effect, 13 to 15 days
Procedure, shortened: as §2

[11] = tested on: chickweed (Stellaria media); test: Test B postemergence plant response; conditions: for Chickweed plant response rating (0 to 100 scale): 62 g ai/ha, 0 is no effect, 13 to 15 days
Procedure, shortened: as §2

[12] = tested on: canarygrass (Phalaris minor); test: Test B postemergence plant response; conditions: for Canarygrass plant response rating (0 to 100 scale): 62 g ai/ha, 0 is no effect, 13 to 15 days
Procedure, shortened: as §2

[13] = Postemergence, 125 g ai/ha, 0 to 100 scale where 0 is no effect and 100 is complete control
[14] = Postemergence, 500 g ai/ha, 0 to 100 scale, 0 = no effect, 100 = complete control, approx. ten days
[15] = Preemergence, 125 g ai/ha, 0 to 100 scale, 0 = no effect, 100 = complete control
[16] = Preemergence, 500 g ai/ha, visual injury, 0 to 100 scale (0 no effect, 100 complete control), approx. ten days
[17] = 31 g ai/ha, postemergence, scale 0 to 100, 0 is no effect, 100 is complete control
[18] = postemergence, 100 is complete control
[19] = Postemergence, 250 g ai/ha, scale 0 to 100 (0 no effect, 100 complete control)
[20] = Postemergence, 125 g ai/ha, visual rating after 13 to 15 days, scale 0 (no effect) to 100 (complete control)

In the case of `O=C1CCCC(OC(=O)C2CC2)=C1C(=O)c1cnc(-c2ccccc2)n(-c2ccccc2)c1=O` [Compound 88], the “Plant response rating, Velvetleaf” value [1, 13] is reported as 100, the “Plant response rating, Velvetleaf” value [1, 14] is reported as 100 and the “Plant response rating, Velvetleaf” value [1, 15] is reported as 80. The “Plant response rating, Velvetleaf” value [1, 16] was 100, the “Plant response rating, Crabgrass, Large” value [2, 13] was 90 and the “Plant response rating, Crabgrass, Large” value [2, 14] was 90. For the same compound, the “Plant response rating, Wheat” value [3, 13] was 0, the “Plant response rating, Wheat” value [3, 14] was 0 and the “Plant response rating, Wheat” value [3, 15] was 0. The “Plant response rating, Wheat” value [3, 16] was 10, the “Plant response rating, Morningglory” value [4, 13] was 90 and the “Plant response rating, Morningglory” value [4, 14] was 100. The “Plant response rating, Morningglory” value [4, 15] was 50, the “Plant response rating, Morningglory” value [4, 16] was 70 and the “Plant response rating, Pigweed” value [5, 13] was 100. For the same compound, the “Plant response rating, Pigweed” value [5, 14] was 100, the “Plant response rating, Barnyardgrass” value [6, 13] was 80 and the “Plant response rating, Barnyardgrass” value [6, 14] was 90. The “Plant response rating, Barnyardgrass” value [6, 15] was 10, the “Plant response rating, Barnyardgrass” value [6, 16] was 90 and the “Plant response rating, Foxtail, Giant” value [7, 13] was 60. The “Plant response rating, Foxtail, Giant” value [7, 14] was 90, the “Plant response rating, Foxtail, Giant” value [7, 16] was 100 and the “Plant response rating, Corn” value [8, 13] was 0. The “Plant response rating, Corn” value [8, 14] was 60, the “Plant response rating, Corn” value [8, 15] was 0 and the “Plant response rating, Corn” value [8, 16] was 0. For the same compound, the “Plant response rating, Windgrass” value [9, 17] was 40, the “Windgrass plant response rating (0 to 100 scale)” value [9, 18] was 60 and the “Plant response rating, Windgrass” value [9, 19] was 70. For the same compound, the “Plant response rating, Barley” value [10, 17] was 30, the “Barley plant response rating (0 to 100 scale)” value [10, 18] was 30 and the “Plant response rating, Barley” value [10, 20] was 40. For the same compound, the “Plant response rating, Barley” value [10, 19] was 80, the “Plant response rating, Chickweed” value [11, 17] was 75 and the “Chickweed plant response rating (0 to 100 scale)” value [11, 18] was 85. The “Plant response rating, Chickweed” value [11, 20] was 95, the “Plant response rating, Chickweed” value [11, 19] was 95 and the “Plant response rating, Canarygrass” value [12, 17] was 60. For the same compound, the “Canarygrass plant response rating (0 to 100 scale)” value [12, 18] was 70, the “Plant response rating, Canarygrass” value [12, 20] was 80 and the “Plant response rating, Canarygrass” value [12, 19] was 90.
In the case of `CCCCCn1c(-c2ccccc2)ncc(C(=O)C2=C(O)CCCC2=O)c1=O` [Compound 89], the “Plant response rating, Velvetleaf” value [1, 13] is reported as 100, the “Plant response rating, Velvetleaf” value [1, 14] is reported as 100 and the “Plant response rating, Velvetleaf” value [1, 15] is reported as 70. The “Plant response rating, Velvetleaf” value [1, 16] was 100, the “Plant response rating, Crabgrass, Large” value [2, 13] was 90 and the “Plant response rating, Crabgrass, Large” value [2, 14] was 100. For the same compound, the “Plant response rating, Crabgrass, Large” value [2, 15] was 60, the “Plant response rating, Crabgrass, Large” value [2, 16] was 90 and the “Plant response rating, Wheat” value [3, 13] was 0. The “Plant response rating, Wheat” value [3, 14] was 20, the “Plant response rating, Wheat” value [3, 15] was 0 and the “Plant response rating, Wheat” value [3, 16] was 30. For the same compound, the “Plant response rating, Morningglory” value [4, 13] was 100, the “Plant response rating, Morningglory” value [4, 14] was 100 and the “Plant response rating, Morningglory” value [4, 15] was 0. The “Plant response rating, Morningglory” value [4, 16] was 70, the “Plant response rating, Pigweed” value [5, 13] was 100 and the “Plant response rating, Pigweed” value [5, 14] was 100. For the same compound, the “Plant response rating, Pigweed” value [5, 15] was 90, the “Plant response rating, Pigweed” value [5, 16] was 100 and the “Plant response rating, Barnyardgrass” value [6, 13] was 90. The “Plant response rating, Barnyardgrass” value [6, 14] was 90, the “Plant response rating, Barnyardgrass” value [6, 15] was 20 and the “Plant response rating, Barnyardgrass” value [6, 16] was 80. For the same compound, the “Plant response rating, Foxtail, Giant” value [7, 13] was 60, the “Plant response rating, Foxtail, Giant” value [7, 14] was 90 and the “Plant response rating, Foxtail, Giant” value [7, 15] was 20. For the same compound, the “Plant response rating, Foxtail, Giant” value [7, 16] was 70, the “Plant response rating, Corn” value [8, 13] was 0 and the “Plant response rating, Corn” value [8, 14] was 10. For the same compound, the “Plant response rating, Corn” value [8, 15] was 0, the “Plant response rating, Corn” value [8, 16] was 0 and the “Plant response rating, Windgrass” value [9, 17] was 0. For the same compound, the “Windgrass plant response rating (0 to 100 scale)” value [9, 18] was 5, the “Plant response rating, Windgrass” value [9, 19] was 50 and the “Plant response rating, Barley” value [10, 17] was 0. For the same compound, the “Barley plant response rating (0 to 100 scale)” value [10, 18] was 5, the “Plant response rating, Barley” value [10, 20] was 10 and the “Plant response rating, Barley” value [10, 19] was 20. For the same compound, the “Plant response rating, Chickweed” value [11, 17] was 75, the “Chickweed plant response rating (0 to 100 scale)” value [11, 18] was 80 and the “Plant response rating, Chickweed” value [11, 20] was 98. The “Plant response rating, Chickweed” value [11, 19] was 98, the “Plant response rating, Canarygrass” value [12, 17] was 10 and the “Canarygrass plant response rating (0 to 100 scale)” value [12, 18] was 35. For the same compound, the “Plant response rating, Canarygrass” value [12, 20] was 50 and the “Plant response rating, Canarygrass” value [12, 19] was 60.
